Measured values reported in US20100267725A1, “Compounds, Compositions and Methods Comprising 4N-Substituted Triazole Derivatives” (Institute for OneWorld Health, priority 2009, published 2010).

Target: T1, CFTR channel (Homo sapiens, UniProt P13569)
T1 construct: host or cells: Human colonic T84 cells
Assay: T84 assay (FLIPR membrane potential dye, forskolin/IBMX-stimulated CFTR channel activity)
Assay type: cell-based
Conditions: Human colonic T84 cells; CFTR stimulated with 10 μM forskolin + 100 μM IBMX
Procedure: (§1) For example, Human colonic T84 cells can be acquired from the European Collection of Cell Cultures (ECACC) and grown in standard culture conditions as described by the supplier. On the day before assay 25,000 T84 cells per well are plated into standard black walled, clear bottom 384-well assay plates in standard growth medium consisting of DMEM:F12 with 10% FBS and incubated overnight. On the day of the assay the plates are washed using a standard assay buffer (HBSS with 10 mM Hepes) and incubated for 15 minutes in serum free cell culture medium before the addition of a commercially available membrane potential sensitive fluorescent dye (FLIPR Red membrane potential dye, Molecular Devices Corporation). T84 cells are incubated with the FLIPR Red membrane potential dye for 45 minutes in the presence and absence of test compound before being transferred to a commercially available fluorescence imaging plate reader (FLIPR384, Molecular Devices Corporation). Fluorescence levels are monitored continuously every second for 150 seconds; after an initial 10 second baseline, CFTR channel activity is stimulated through the addition of 10 μM forskolin in the presence of 100 μM of the phosphodiesterase inhibitor iso-butyl-methylxanthine (IBMX). Addition of the forskolin leads to the activation of intracellular adenylyl cylase 1, elevating cAMP levels and results in the phosphorylation and opening of CFTR anion channels. CFTR channel opening causes chloride ion efflux and subsequent depolarization of the cells, which is measured by an increase in fluorescence. CFTR inhibitor compounds prevent cell depolarization and the associated increase in fluorescence.
as §1, with “Human colonic” for “For example, Human colonic”, “T84 cells are acquired from” for “T84 cells can be acquired from”, “(ECACC) and are grown in” for “(ECACC) and grown in”

T1 sequence (P13569 whole entry): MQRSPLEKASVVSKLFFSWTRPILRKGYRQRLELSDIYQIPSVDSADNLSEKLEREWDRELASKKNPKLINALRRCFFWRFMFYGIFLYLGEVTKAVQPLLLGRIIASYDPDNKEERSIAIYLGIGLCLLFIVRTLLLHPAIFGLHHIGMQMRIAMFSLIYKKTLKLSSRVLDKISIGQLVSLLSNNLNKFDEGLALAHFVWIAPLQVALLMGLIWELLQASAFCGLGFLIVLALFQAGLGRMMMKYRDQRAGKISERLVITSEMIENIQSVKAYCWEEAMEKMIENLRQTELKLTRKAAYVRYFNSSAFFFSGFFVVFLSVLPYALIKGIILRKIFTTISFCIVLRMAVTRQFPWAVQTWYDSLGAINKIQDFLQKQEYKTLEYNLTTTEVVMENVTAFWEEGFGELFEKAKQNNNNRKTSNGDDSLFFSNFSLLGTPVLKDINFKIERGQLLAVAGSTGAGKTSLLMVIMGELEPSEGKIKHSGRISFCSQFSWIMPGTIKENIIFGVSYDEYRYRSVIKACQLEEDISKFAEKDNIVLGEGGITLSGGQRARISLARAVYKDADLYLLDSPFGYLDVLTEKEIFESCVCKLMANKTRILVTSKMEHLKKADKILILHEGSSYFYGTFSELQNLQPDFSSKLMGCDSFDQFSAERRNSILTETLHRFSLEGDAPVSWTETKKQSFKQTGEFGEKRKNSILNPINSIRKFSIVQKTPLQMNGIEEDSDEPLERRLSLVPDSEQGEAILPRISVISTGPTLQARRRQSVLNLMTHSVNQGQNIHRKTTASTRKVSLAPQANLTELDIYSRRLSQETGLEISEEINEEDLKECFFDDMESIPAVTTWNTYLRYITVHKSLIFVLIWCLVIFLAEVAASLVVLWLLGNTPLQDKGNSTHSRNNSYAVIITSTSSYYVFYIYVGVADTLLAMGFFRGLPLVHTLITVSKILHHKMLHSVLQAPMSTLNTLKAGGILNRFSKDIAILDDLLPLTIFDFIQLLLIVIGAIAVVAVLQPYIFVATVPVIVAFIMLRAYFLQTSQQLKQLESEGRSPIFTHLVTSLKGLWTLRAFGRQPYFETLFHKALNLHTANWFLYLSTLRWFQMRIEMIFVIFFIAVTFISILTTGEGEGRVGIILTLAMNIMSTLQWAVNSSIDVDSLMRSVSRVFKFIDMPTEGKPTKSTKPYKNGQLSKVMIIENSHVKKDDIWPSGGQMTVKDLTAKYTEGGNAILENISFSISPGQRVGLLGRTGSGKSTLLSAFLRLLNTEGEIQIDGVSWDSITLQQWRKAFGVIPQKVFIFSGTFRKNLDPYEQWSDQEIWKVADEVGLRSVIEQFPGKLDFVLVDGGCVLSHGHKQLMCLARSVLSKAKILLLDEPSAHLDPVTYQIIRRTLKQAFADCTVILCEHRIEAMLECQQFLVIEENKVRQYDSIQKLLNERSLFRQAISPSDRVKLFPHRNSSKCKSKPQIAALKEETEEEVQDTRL

Compound | IC50 [µM]
O=C(NCc1ccc(Oc2ccccc2)cc1)c1nnc(-c2cc(Cl)c(O)c(Cl)c2)n1Cc1ccccc1 [Compound 1, 4-benzyl-5-(3,5-dichloro-4-hydroxyphenyl)-N-(4-phenoxybenzyl)-4H-1,2,4-triazole-3-carboxamide] | 7.14
CN(C)c1cccc(Cn2c(C(=O)NCc3ccc(Oc4ccccc4)cc3)nnc2-c2cc(Cl)c(O)c(Cl)c2)c1 [Compound 2, 5-(3,5-dichloro-4-hydroxyphenyl)-4-(3-(dimethylamino)benzyl)-N-(4-phenoxybenzyl)-4H-1,2,4-triazole-3-carboxamide] | 6.69
O=C(NCc1ccc(Oc2ccccc2)cc1)c1nnc(-c2cc(Cl)c(O)c(Cl)c2)n1Cc1cccnc1 [Compound 3, 5-(3,5-Dichloro-4-hydroxyphenyl)-N-(4-phenoxybenzyl)-4-(pyridin-3-ylmethyl)-4H-1,2,4-triazole-3-carboxamide] | 7.18
O=C(NCc1ccc(Oc2ccccc2)cc1)c1nnc(-c2cc(Cl)c(O)c(Cl)c2)n1Cc1ccccn1 [Compound 4, 5-(3,5-dichloro-4-hydroxyphenyl)-N-(4-phenoxybenzyl)-4-(pyridin-2-ylmethyl)-4H-1,2,4-triazole-3-carboxamide] | 12.9
COc1ccc(-n2c(C(=O)NCc3ccc(Oc4ccccc4)cc3)nnc2-c2cc(Cl)c(O)c(Cl)c2)cn1 [Compound 5, 5-(3,5-dichloro-4-hydroxyphenyl)-4-(6-methoxypyridin-3-yl)-N-(4-phenoxybenzyl)-4H-1,2,4-triazole-3-carboxamide] | 7.74
O=C(NCc1ccc(Oc2ccccc2)cc1)c1nnc(-c2cc(Cl)c(O)c(Cl)c2)n1Cc1ccc(CN2CCOCC2)cc1 [Compound 6, 5-(3,5-dichloro-4-hydroxyphenyl)-4-(4-(morpholinomethyl)benzyl)-N-(4-phenoxybenzyl)-4H-1,2,4-triazole-3-carboxamide] | 12.8
